Literature values in patent publication US20190125940A1, “STENTS FOR THE RELEASE OF ACTIVE PRINCIPLES” (CID S.p.A., priority 2016, published 2019).

Conditions: related to complete in vitro release at 30 hours; Eurointervention 2012; 7:1087-1094

in vivo release after coronary implantation: greater than 30 days
Structure (SMILES): CO[C@H]1C[C@@H]2CC[C@@H](C)[C@@](O)(O2)C(=O)C(=O)N2CCCC[C@H]2C(=O)O[C@H]([C@H](C)C[C@@H]2CC[C@@H](O)[C@H](OC)C2)CC(=O)[C@H](C)/C=C(\C)[C@@H](O)[C@@H](OC)C(=O)[C@H](C)C[C@H](C)/C=C/C=C/C=C/1C [Sirolimus]
